One data set relates to mitochondria. The note with it: from Roy et al. [12]; cited from earlier work.
A short description of data set [1]: Plasma stability determination in mouse plasma. The class given is in vitro ADME. The note with it: mouse, read-out: Mouse Plasma t1/2. Here is the method: Plasma stability determination. The degradation of TR001 in the presence of mouse plasma (from Innovative Research) was used to predict the plasma stability of the compound to esterase catalyzed hydrolysis. A positive control for plasma cholinesterase, propantheline bromide, was included in all assays. Briefly, murine plasma was incubated with 1 μm TR001. Aliquots were removed at t=0, 5, 15, 30, and 60 and 120 min and quenched with acetonitrile containing structurally related compound (TR073) as the internal standard. The amount of TR001 remaining in the supernatant was assessed by LC-MS/MS in multiple reaction monitoring mode (MRM) using a 4000 QTRAP (SCIEX) with electrospray ionization source. The instrument was operated in negative mode with source parameters: source voltage […], GS1 50, GS2 50, CUR 30, TEM 650 and CAD gas MED. Optimal MRM transitions were obtained by direct infusion of the pure compound into the source. The mass spectrometer was interfaced to a Shimadzu (Columbia, MD) SIL-20AC XR auto-sampler maintained at 35° C. followed by 2 LC-20AD XR LC pumps. The internal standard and compound of interest were resolved using a Gemini-NX C18 50×2.1 mm column (Phenomenex) with 0.1% formic acid (solvent A) and 0.1% formic acid in acetonitrile (solvent B). The injection volume was 10 μL at a flow rate of 0.75 mL/min. The gradient elution was 10% B to 95% B over 5 min and held at 95% for 1 min before returning to start conditions. The column was maintained at 40° C. using a Shimadzu CTO-20AC column oven. Data were acquired using Analyst 1.6.2 and analyzed using Multiquant 3.0.1 software. The first-order rate constant for substrate depletion was determined from a linear least squares fit of the natural log of the percent parent compound remaining versus time. The rate constant was used to calculate the plasma half-life as an indicator of stability.

In data set [2] the test system is mtPTP. The experiment in a line: Ca2+ retention capacity (CRC) of isolated mouse liver mitochondria. The class given is biochemical. The note with it: Mouse Liver Mitochondria (MLM), comparative examples. The protocol:
CRC determines the Ca^2+ threshold required for mtPTP activation; inhibitors of mtPTP are expected to increase the Ca^2+ threshold required for mtPTP induction. Extramitochondrial Ca^2+ changes are detected using the membrane-impermeant Ca^2+ indicator, Calcium Green-5N.
(§1) Isolation of mitochondria. C57BL6/N mouse liver mitochondria were prepared from 2 to 6 month old male mice by standard differential centrifugation. Mice fed ad libitum were euthanized with CO2 followed cervical dislocation, their livers were existed and placed in a glass beaker containing ice-cold isolation buffer (IB: 0.25 m sucrose, 10 mm Tris-HCl, 0.1 mm EGTA-Tris, pH 7.4) supplemented with fatty acid free bovine serum albumin. Livers were then cut into small pieces with scissors, rinsed with ice-cold IB, and passed through a pre-chilled Potter homogenizer with Teflon pestle. The homogenate (˜30 mL per liver) was transferred to centrifuge tubes, and unbroken cells and nuclei were removed by centrifugation at 700 g for 10 min at 4° C. The supernatant containing mitochondria and other organelles was transferred to new tubes and centrifuged at 6000 g for 10 min at 4° C. The resulting supernatant was discarded and mitochondrial pellet was carefully suspended in ice-cold IB and spun at 9500 g for 5 min at 4° C. The pellet was suspended in IB to give a protein concentration of ˜60-80 mg/mL and stored on ice. Experiments were started immediately and completed within 5 h. Protein concentration was determined by the Biuret method.
Assessment of Ca^2+ retention capacity (CRC). CRC of isolated mouse liver mitochondria was assessed as follows: First, 0.1 mL of SAB were dispensed to a 96-well black assay plate in the presence of 2% DMSO (control wells) or varying concentrations of test compounds, in 1:2 serial dilutions. Then, 0.1 mL of 0.5 mg/mL mitochondria in SAB devoid of respiratory substrates, but supplemented with 1 μm Calcium Green-5N were added to all wells of the assay plate. A train of 10 μm CaCl2 pulses was added at 2 min intervals, and fluorescence intensity (ex/em 485/535 nm) was read on Tecan Infinite F200 plate reader.

For data set [3], the system named is mtPTP. The data set is described as follows: Ca2+ overload induced mitochondrial swelling in isolated mouse liver mitochondria. It is filed as biochemical. The note with it: Mouse Liver Mitochondria (MLM), comparative examples; read-out: Swelling EC50. The protocol: We next sought to evaluate the effects of TR001-13 on mtPTP activity in vitro. This was performed on isolated mitochondria. In isolated mitochondria induction of mtPTP opening leads to mitochondrial swelling due to the oncotic pressure gradient created by matrix proteins >1.5 kDa that cannot diffuse through the open pore. In in vitro experiments, where isolated mitochondria are routinely suspended in sucrose-based isosmotic solutions, the change in mitochondrial size can be measured spectrometrically by detecting the decrease in light scattering at 540 nm.
as §1
Assessment of mitochondrial swelling. Changes in mitochondrial volume of isolated mouse liver mitochondria were followed in a 96-well clear assay plate at a final volume of 0.2 mL and 0.25 mg/mL mitochondrial protein. Absorbance was read for 30 min at 540 nm on a Tecan Infinite F200 plate reader. Activity of test compounds was addressed as follows: First, 0.1 mL of sucrose assay buffer (SAB: 0.250 m sucrose, 10 mm MOPS-Tris, 0.01 mm EGTA-Tris, 1.0 mm phosphoric acid-Tris, 10 mm glutamate and 5 mm malate, pH 7.4) supplemented with twice the CaCl2 concentration required to induce mitochondrial swelling (which was determined for each preparation of mitochondria, typically 50 μm) was dispensed to the assay plate. A set of wells also contained 2.0 mm EGTA (to prevent mitochondrial swelling). The test wells contained a range of concentrations (in 1:2 serial dilutions) of the compounds of interest or 2% DMSO. Experiments were started by the addition of 0.1 mL of mitochondrial suspension (0.5 mg/mL mitochondria in SAB without respiratory substrates) to the assay plates. EC50s±SE were determined with OriginPro software by applying Hill1 function fitting algorithm on average concentration response data of n=3-41 independent preparations.

In data set [4] the test system is inner mitochondrial membrane potential. The data set is described as follows: Rhodamine 123 (Rh123) uptake, mitochondrial membrane potential of isolated mouse liver mitochondria. The note with it: Mouse Liver Mitochondria (MLM), comparative examples; read-out: Rh123 EC50. It is filed as biochemical. The text has this:
We next evaluated the mitochondrial toxicity of the new triazole analogs by testing their ability to interfere with accumulation of the membrane-permeant cationic fluorescent dye rhodamine 123 (Rh123). The mitochondrial uptake of positively charged Rh123 is driven by the inside negative IMM potential, which is built by the respiratory chain or maintained by ATP hydrolysis if certain conditions are met. […] It should be noted, however, that toxicity for these compounds only occurs at ˜10-1000-fold higher concentrations compared to mtPTP inhibition, providing a good therapeutic window.
Assessment of mitochondrial membrane potential. Mitochondrial membrane potential—to evaluate toxicity—of isolated mouse liver mitochondria was assessed based on fluorescence quenching of the cationic fluorescent dye Rh123 upon its accumulation into mitochondrial matrix due to inside negative membrane potential. Compounds that interfere with the build-up or maintenance of IMM potential would shift Rh123 fluorescence to higher values compared to DMSO treated samples. Uncoupler FCCP was used to account for nonspecific fluorescence. First, 0.1 mL of SAB was dispensed to a 96-well black assay plate. A set of wells also contained 0.8 μm FCCP (to prevent Rh123 uptake). The test wells contained a range of concentrations (in 1:2 serial dilutions) of the compounds of interest or 2% DMSO. Then, 0.1 mL of 0.5 mg/mL mitochondria in SAB devoid of respiratory substrates but supplemented with 0.8 μm Rh123 were added to all wells of the assay plate. Fluorescence intensity (ex/em 485/535 nm) was read on a Tecan Infinite F200 plate reader for 7 min and value at 5 min was considered for analysis. EC50s±SE were determined with OriginPro software by applying Hill1 function fitting algorithm on average concentration response data of n=3 independent preparations.

Where only a bound is given, the exact number is not on record here.

With `Cc1ccc(Cl)cc1NC(=O)c1cc(-c2ccc(F)c(O)c2)[nH]n1` [Compound 72], the mitochondrial toxicity result with mitochondria is “exhibited mitochondrial toxicity”. Besides, the half-life at 1 µM in data set [1] was found to be 8.88 h.

Regarding `COc1ccc(-c2cc(C(=O)Nc3cc(Cl)ccc3C)nn2C)cc1O` [Compound 73], in the data set on mitochondria, the mitochondrial toxicity result was “exhibited mitochondrial toxicity”. For the same molecule, the half-life at 1 µM in data set [1] was 1.42 h.

On to `COc1ccc(-c2cc(C(=O)Nc3cc(Cl)cnc3C)nn2C)cc1O` [Compound 74], for which, in the data set on mitochondria, the mitochondrial toxicity result is given as “exhibited mitochondrial toxicity”. Also, in data set [1], the half-life at 1 µM was determined as 2.52 h.

For orientation: EC50 means the midpoint of the concentration-response curve. `Cc1ccc(-n2cc(C(=O)Nc3cc(Cl)ccc3C)nn2)cc1O` [drawing 67]: the “CRC/CRC0 at 1.25 μM” value in the data set with mtPTP [2] was found to be 1.4. Besides, the EC50 in the data set on mtPTP [3] was more than 20 µM; in data set [4] it was more than 40 µM.

For the molecule `Cc1ccc(Cl)cc1NC(=O)c1cn(-c2cccc(O)c2C)nn1` [drawing 68], in the data set on mtPTP [2], the “CRC/CRC0 at 1.25 μM” value is listed as 1.4. In addition, the EC50 in the data set with mtPTP [3] was 10.6 µM; in data set [4], more than 40 µM.

As to `Cc1ccc(Cl)cc1NC(=O)c1cn(-c2cc(O)cc(Cl)c2)nn1` [drawing 69], the “CRC/CRC0 at 1.25 μM” value in the data set on mtPTP [2] is recorded as 7.3. Besides, the results for the EC50 (with mtPTP [3]; in data set [4]) were 0.028 µM and more than 40 µM, respectively.

Consider `Cc1ccc(Cl)cc1NC(=O)c1cn(-c2cccc(O)c2Cl)nn1` [drawing 70], for which the “CRC/CRC0 at 1.25 μM” value in the data set on mtPTP [2] stood at 1.2. Besides, the EC50 with mtPTP [3] is more than 20 µM; in data set [4], more than 40 µM.

As to `Cc1ccc(Cl)cc1NC(=O)c1cn(-c2cc(O)cc(C(F)(F)F)c2)nn1` [drawing 71], the “CRC/CRC0 at 1.25 μM” value in the data set on mtPTP [2] is recorded as 3. Also, the EC50 in the data set on mtPTP [3] was found to be 0.534 µM; in data set [4] it was 6 µM.

These data come from patent US12398110B2, “Second generation inhibitors of mitochondrial permeability transition pore with improved plasma stability” (Oregon Health & Science University, priority 2019, dated 2025).
